The text below walks through data of PMC6413339 (EBioMedicine, 2019).

One assay concerns MV4–11 cells. Nature of the assay: Trypan blue exclusion viable cell count. Type of assay: cell-based, human. The conditions noted are these: 0.1–10 nM, 72 h. On the procedure: To determine the effect of HSN431 on actual leukemia cell counts, MV4–11 cells were seeded into 96 well plates as above and treated with either DMSO vehicle, or HSN431 at the following concentrations: 0.1 nM, 0.2 nM, 0.5 nM, 1 nM, 2 nM, 5 nM, and 10 nM. Cells were incubated for 72 h, and then counted using trypan blue exclusion on the Countess automated cell counter (Life Technologies, Carlsbad, CA). Cell counts were performed in triplicates, and the averages, standard deviations and t-test statistical analyses were graphed using GraphPad Prism software (GraphPad, La Jolla, CA).

The subject of another assay is phospho-Akt. The assay is described as follows: Western blot, MV4–11 cells. Type of assay: cell-based, human. As to conditions: 2 nM or 10 nM, 6 h and 48 h. On the procedure:
(§1) MV4–11 cultures were treated with 2 nM and 10 nM of compounds for 6 h and 48 h. Total protein extraction, gel separation, transfer and imaging of blots were performed as previously described. The following primary antibodies from Cell Signaling Technologies (MA, USA) were used: Phospho-p70S6K (cat. no. 9205, RRID: AB_330944), p70S6K (cat. no. 9202, RRID: AB_331676), Phospho-p38 (cat. no. 9211, RRID: AB_331641), p38 (cat. no. 9212, RRID: AB_330713), c-Myc (cat. no. 9402, RRID: AB_2151827), Phospho-FLT3 (cat. no. 3461, RRID: AB_331060), FLT3 (cat. no. 3462, RRID: AB_10693420), Phospho-STAT5 (cat. no. 9359, RRID: AB_823649), STAT5 (cat. no. 9363, RRID: AB_2196923), Phospho-ERK (cat. no. 9101, RRID: AB_331646), ERK (cat. no. 4695, RRID: AB_390779), Phospho-AKT (cat. no. 9271), AKT (cat. no. 9272, RRID: AB_329825), Phospho-Src (cat. no. 2101, RRID: AB_331697), Src (cat. no. 2110, RRID: AB_2106058), Phospho-STAT3 (cat. no. 9145, RRID: AB_2491009), STAT3 (cat. no. 12640, RRID: AB_2629499). Mouse anti-β-Actin antibody was purchased from Sigma (MO, USA). A horseradish peroxidase-conjugated anti-rabbit or anti-mouse antibody (Cell Signaling Technologies) was used as secondary antibody. Scanned images were analyzed using image J software.

In the next assay the test system is phospho-p70S6K. Nature of the assay: Western blot, MV4–11 cells. The format is cell-based, human. As to conditions: 2 nM or 10 nM, 6 h and 48 h. On the procedure: as §1
For another assay, the system named is c-Myc. The assay is described as follows: Western blot, MV4–11 cells. The conditions noted are these: 2 nM or 10 nM, 6 h and 48 h. Type of assay: cell-based, human. On the procedure:
as §1

The subject of another assay is phospho-Src. Nature of the assay: Western blot, MV4–11 cells. The conditions noted are these: 2 nM or 10 nM, 6 h and 48 h. Type of assay: cell-based, human. Here is the method:
as §1

Another assay deals with phospho-p38. The assay is described as follows: Western blot, MV4–11 cells. The conditions noted are these: 2 nM or 10 nM, 6 h and 48 h. The format is cell-based, human. Here is the method:
as §1

For assay [1], the system named is phospho-FLT3. Nature of the assay: Western blot, MV4–11 cells. Type of assay: cell-based, human. As to conditions: 2 nM or 10 nM, 6 h and 48 h. On the procedure:
as §1

For another assay, the system named is phospho-ERK. Nature of the assay: Western blot, MV4–11 cells. Type of assay: cell-based, human. As to conditions: 2 nM or 10 nM, 6 h and 48 h. On the procedure:
as §1

The next assay concerns phospho-STAT5. The assay is described as follows: Western blot, MV4–11 cells. The format is cell-based, human. The conditions noted are these: 2 nM or 10 nM, 6 h and 48 h. On the procedure:
as §1

In the next assay the test system is phospho-STAT3. Nature of the assay: Western blot, MV4–11 cells. Type of assay: cell-based, human. As to conditions: 2 nM or 10 nM, 6 h and 48 h. On the procedure: as §1
For another assay, the target named is T1, p70S6K (Homo sapiens, UniProt P23443).
T1 construct: purchased Invitrogen PV3815
T1 sequence (P23443 whole entry): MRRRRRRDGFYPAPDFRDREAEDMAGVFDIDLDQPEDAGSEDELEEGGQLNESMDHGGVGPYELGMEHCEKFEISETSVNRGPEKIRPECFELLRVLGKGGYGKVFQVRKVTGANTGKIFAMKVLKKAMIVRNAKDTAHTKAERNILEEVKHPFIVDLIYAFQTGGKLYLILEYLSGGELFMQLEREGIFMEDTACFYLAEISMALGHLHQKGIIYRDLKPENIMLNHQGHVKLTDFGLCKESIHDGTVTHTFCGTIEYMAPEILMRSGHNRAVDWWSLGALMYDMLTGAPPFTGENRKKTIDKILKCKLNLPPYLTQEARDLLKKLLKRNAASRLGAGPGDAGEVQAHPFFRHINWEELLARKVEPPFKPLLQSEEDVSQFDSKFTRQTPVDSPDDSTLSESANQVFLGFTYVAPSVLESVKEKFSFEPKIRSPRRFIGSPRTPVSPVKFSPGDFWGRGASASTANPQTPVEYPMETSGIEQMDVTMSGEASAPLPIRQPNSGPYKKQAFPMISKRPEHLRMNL
The assay is described as follows: Cell-free kinase assay, dose-response. As to conditions: ATP 100 μM. Type of assay: biochemical. Here is the method:
(§2) Cell-free kinase activity assays were performed at Reaction Biology Corporation. Briefly, kinases were incubated with substrates, 100 μM ATP and a 3-fold serial dilution of compounds starting at 1 μM. DMSO was used as control. […] Experiments were performed in duplicates. The concentrations of kinases and substrates used in the assays are indicated on Table S1. Kinase activity was quantified using the ADP-Glo™ Kinase Assay System (Promega, Madison, WI) following the manufacturer's recommendations.

The next assay concerns the target T2, p38 (Homo sapiens, UniProt Q16539).
T2 construct: purchased Invitrogen PV3304
The assay is described as follows: Cell-free kinase assay, dose-response. The format is biochemical. As to conditions: ATP 100 μM. On the procedure:
as §2

In the next assay the target is T3, RAF-1 (Homo sapiens, UniProt P04049, Y340D/Y341D).
T3 construct: purchased Invitrogen PV3805
T3 sequence (P04049 306-648 Y340D/Y341D limits assumed): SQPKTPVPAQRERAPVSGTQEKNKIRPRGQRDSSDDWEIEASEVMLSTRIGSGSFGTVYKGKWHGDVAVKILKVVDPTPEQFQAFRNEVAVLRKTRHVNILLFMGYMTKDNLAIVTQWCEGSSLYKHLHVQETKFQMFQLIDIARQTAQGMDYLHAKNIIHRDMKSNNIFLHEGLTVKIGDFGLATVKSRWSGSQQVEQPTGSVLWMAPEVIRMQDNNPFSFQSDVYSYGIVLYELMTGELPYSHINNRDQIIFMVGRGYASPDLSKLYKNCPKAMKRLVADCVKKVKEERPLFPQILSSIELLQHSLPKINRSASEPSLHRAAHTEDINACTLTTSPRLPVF
Nature of the assay: Cell-free kinase assay, dose-response. Type of assay: biochemical. The conditions noted are these: ATP 100 μM; read-out: IC50 RAF-1 (c-Raf). On the procedure: as §2

The next assay has as its target T4, MEK1 (Homo sapiens, UniProt Q02750).
T4 construct: purchased Invitrogen PV3303
Nature of the assay: Cell-free kinase assay, dose-response. The format is biochemical. As to conditions: up to 1 μM; ATP 100 μM. Here is the method: as §2

Another assay concerns the target T5, ARAF (Homo sapiens, UniProt P10398).
T5 construct: purchased BPS 40010
The assay is described as follows: Cell-free kinase assay, dose-response. Type of assay: biochemical. As to conditions: ATP 100 μM; read-out: IC50 ARAF (A-Raf). Here is the method: as §2

Another assay addresses T6, RSK1 (Homo sapiens, UniProt Q15418).
T6 construct: purchased Invitrogen PR6812A
The assay is described as follows: Cell-free kinase assay, dose-response. The format is biochemical. The conditions noted are these: ATP 100 μM. Here is the method:
as §2

Assay [2] has as its system AML cell lines (MV4–11, MOLM-14, MOLM-14 (ITD, D835Y), MOLM-14 (ITD, F691 L)). Nature of the assay: Annexin V apoptosis (flow cytometry). Type of assay: cell-based, human. As to conditions: 24 h and 48 h; dose- and time-dependent. Here is the method:
Cells seeded into T-25 flasks at a density of 8.0 × 10^4 cells/mL and incubated overnight at 37 °C with 5% CO2. Each treatment was performed in triplicates, with three flasks per treatment each with enough volume for both assays at the applicable time points. Following the overnight incubation, cells were treated with either DMSO or different concentrations of HSN431 (as indicated) in triplicates, mixed well and incubated. At each time point (24 and 48 h), aliquots of 1.5 mL of cells were collected from each flask and placed into labeled FACS tubes (for Annexin V apoptosis) or labeled 15 cc conical tubes (for cell cycle) and centrifuged at 300 × g for 5 min. Cells were washed twice with 1× PBS.
For Annexin V apoptosis, cell pellets were resuspended in 100 μL of 1× assay buffer and the binding of Annexin V and PI were measured by staining cells following the BD Pharmingen™ FITC Annexin V Apoptosis Detection Kit I (cat. no. 556547, BD Biosciences, San Jose, CA, USA) recommendations. Flow cytometry was performed on a a FACSCanto II flow cytometer (BD Bioscience, San Jose, CA, USA) and data analyzed using the FlowJo software (Flowjo, LLC, Ashland, OR).

Assay [3] concerns phospho-FLT3. The assay is described as follows: Western blot, MOLM-14 (ITD, D835Y) cells. The format is cell-based, human.

T2 sequence (Q16539 whole entry): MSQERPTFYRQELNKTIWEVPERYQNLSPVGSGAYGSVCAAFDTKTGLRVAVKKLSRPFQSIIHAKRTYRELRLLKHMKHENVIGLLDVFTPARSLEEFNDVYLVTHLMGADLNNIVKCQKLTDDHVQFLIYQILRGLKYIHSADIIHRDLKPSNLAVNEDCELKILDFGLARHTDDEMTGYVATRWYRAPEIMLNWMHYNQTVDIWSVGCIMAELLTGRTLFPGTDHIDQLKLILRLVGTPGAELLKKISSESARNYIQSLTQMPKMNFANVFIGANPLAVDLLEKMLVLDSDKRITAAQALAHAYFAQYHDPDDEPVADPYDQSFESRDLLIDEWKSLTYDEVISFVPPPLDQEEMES
T5 sequence (P10398 whole entry): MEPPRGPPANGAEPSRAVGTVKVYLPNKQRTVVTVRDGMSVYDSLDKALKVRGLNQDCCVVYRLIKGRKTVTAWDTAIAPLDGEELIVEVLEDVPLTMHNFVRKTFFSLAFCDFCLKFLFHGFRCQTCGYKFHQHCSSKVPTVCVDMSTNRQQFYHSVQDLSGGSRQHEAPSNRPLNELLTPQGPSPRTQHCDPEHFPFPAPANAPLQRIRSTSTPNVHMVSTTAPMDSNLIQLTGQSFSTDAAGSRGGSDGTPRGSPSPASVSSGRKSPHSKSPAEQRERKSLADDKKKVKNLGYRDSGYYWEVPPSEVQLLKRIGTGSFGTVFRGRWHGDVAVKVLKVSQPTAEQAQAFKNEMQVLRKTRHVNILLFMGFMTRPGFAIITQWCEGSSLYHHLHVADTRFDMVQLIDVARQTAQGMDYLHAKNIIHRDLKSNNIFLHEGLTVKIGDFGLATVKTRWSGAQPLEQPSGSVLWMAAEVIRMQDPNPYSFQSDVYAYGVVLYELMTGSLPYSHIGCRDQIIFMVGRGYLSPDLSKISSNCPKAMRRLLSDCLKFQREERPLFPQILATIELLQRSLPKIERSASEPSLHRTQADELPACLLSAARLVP
T6 sequence (Q15418 whole entry): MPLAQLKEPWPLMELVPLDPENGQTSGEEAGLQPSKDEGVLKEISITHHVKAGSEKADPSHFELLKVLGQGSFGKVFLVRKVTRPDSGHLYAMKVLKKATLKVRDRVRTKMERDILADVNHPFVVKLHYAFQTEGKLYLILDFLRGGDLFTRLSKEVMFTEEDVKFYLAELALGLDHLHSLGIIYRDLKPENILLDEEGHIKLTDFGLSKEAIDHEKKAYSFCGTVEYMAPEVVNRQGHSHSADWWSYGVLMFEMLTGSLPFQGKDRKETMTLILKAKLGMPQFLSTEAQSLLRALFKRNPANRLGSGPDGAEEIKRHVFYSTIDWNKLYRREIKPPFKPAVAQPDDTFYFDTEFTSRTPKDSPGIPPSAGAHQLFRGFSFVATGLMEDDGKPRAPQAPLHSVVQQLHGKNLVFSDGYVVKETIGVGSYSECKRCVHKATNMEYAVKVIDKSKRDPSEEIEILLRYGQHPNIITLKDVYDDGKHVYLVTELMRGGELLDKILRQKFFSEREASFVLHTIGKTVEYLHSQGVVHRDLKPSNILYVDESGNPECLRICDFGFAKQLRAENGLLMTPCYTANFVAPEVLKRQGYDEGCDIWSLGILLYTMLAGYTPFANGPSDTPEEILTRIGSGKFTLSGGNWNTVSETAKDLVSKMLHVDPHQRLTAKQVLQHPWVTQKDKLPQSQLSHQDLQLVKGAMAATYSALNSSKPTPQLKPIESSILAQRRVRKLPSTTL
T4 sequence (Q02750 whole entry): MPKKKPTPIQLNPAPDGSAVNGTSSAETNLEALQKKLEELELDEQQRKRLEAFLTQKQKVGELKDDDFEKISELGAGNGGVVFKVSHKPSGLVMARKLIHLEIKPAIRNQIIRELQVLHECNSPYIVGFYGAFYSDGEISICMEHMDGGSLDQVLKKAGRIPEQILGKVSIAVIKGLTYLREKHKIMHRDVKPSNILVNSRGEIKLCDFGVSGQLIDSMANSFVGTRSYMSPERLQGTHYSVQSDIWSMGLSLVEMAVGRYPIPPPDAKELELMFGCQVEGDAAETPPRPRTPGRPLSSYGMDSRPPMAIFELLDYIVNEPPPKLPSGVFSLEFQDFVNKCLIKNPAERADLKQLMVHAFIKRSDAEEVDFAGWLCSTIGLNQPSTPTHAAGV

For the compound `Cc1ncc(C(=O)Nc2ccc(CN3CCN(C)CC3)c(C(F)(F)F)c2)cc1C#Cc1c(N)ncc2ccc(F)cc12` [Compound 7], in the assay with MV4–11 cells, the “viable MV4–11 cell count” value is “decreased in presence of compound in dose-dependent manner”. Also, the “phosphorylation of Akt” value with phospho-Akt was “decreased phosphorylation”. Besides, in the assay with phospho-p70S6K, the “phosphorylation of p70S6K” value was “decreased phosphorylation”. Moreover, the c-Myc level entry with c-Myc is recorded as “modest inhibition”. Further, the “phosphorylation of Src” value in the assay with phospho-Src was “inhibition”. In the assay on phospho-p38, the “phosphorylation of p38” value is listed as “inhibition”. Moreover, the results for the “phosphorylation of FLT3” value in the assay on phospho-FLT3 [1] and in the assay with phospho-FLT3 [3] were “inhibition” and “Inhibition”, respectively. Further, the “phosphorylation of ERK” value with phospho-ERK is reported as “inhibition”. In the assay with phospho-STAT5, the STAT5 phosphorylation result is recorded as “inhibited”. For the same compound, the STAT3 phosphorylation entry with phospho-STAT3 is reported as “inhibited”. For the same compound, the IC50 on p70S6K was found to be 44.7 nM; against p38, 46.2 nM; at RAF-1, 12.8 nM; on ARAF, 27.6 nM; at RSK1, 1480 nM. In addition, the “inhibition of MEK1 kinase activity” value at MEK1 is “but not the downstream effectors MEK1, ERK1 and RSK1”. The total apoptosis result in assay [2] is listed as “induced apoptosis”.
